# Like-named read-outs stand apart in the source and are kept apart here.
# What was measured:
# [1] = Inhibition of linoleic acid peroxidation (AAPH-induced)
# Protocol: Our group evaluated the in vitro study as reported previously. Ten 16 mM sodium linoleate solution microliters were added to the UV cuvette containing 93 µL of a 0.05 M phosphate buffer, pH 7.4, and 10 µL of the tested compounds (final concentration 100 µM). The oxidation reaction started at 37 °C under air by adding 50 µL of the free radical initiator AAPH (40 mM). Oxidation was carried out and monitored at 234 nm. DMSO under the same conditions was used as a negative control. Trolox was used as the appropriate standard (positive control). The results are given in Table S1 in the supplementary material.
# We used the water-soluble 2, 2’-azobis(2-amidinopropane) hydrochloride (AAPH) to generate in vitro peroxyl radicals through spontaneous thermal decomposition, which resembles cellular lipid peroxidation due to the activity of the undertaken radicals. The anti-lipid peroxidation activities were compared to a well-known antioxidant, i.e., Trolox (Table S1 in the supplementary material). […] In general, the anti-lipid peroxidation ranged from 8-99%. Except for acids 11, 12, 17, 19, 21, 22, 24, 25, and 28, which present high antioxidant activities (on the high % level), the other cinnamic acids present low or medium activity.
# [2] = molecular target: T1, soybean lipoxygenase (LOX-1) (Glycine max, UniProt P08170); assay: Soybean lipoxygenase inhibition study; format: biochemical; conditions: for LOX inhibition (%): % inhibition at 100 µM; for inhibition at 100 µM: read-out: LOX inhibition (%)
# T1 construct: purchased Sigma Chemical, Co. (St Louis, MO, USA)
# T1 sequence (P08170 1-839): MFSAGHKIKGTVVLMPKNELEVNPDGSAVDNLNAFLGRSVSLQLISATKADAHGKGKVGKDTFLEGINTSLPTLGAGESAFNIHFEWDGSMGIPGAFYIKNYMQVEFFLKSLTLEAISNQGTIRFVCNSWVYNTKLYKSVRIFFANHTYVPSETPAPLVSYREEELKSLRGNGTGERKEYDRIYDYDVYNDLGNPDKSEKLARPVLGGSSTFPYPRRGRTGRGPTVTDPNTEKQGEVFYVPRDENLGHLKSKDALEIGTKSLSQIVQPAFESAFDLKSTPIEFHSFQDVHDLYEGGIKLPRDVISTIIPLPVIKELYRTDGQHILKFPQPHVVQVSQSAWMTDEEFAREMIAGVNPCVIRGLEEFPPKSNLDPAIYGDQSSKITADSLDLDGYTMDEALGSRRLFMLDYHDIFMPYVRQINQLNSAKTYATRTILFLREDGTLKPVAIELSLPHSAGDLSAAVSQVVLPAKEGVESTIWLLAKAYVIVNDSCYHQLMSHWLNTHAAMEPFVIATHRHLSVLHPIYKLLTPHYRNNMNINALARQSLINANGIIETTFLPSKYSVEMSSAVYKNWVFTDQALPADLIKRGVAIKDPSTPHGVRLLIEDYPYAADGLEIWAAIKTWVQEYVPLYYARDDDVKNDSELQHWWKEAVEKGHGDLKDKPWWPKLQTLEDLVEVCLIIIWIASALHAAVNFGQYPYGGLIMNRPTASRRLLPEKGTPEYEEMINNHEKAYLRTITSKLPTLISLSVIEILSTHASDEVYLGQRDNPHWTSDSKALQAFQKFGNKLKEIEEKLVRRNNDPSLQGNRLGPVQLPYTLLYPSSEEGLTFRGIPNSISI
# Protocol: Our group evaluated an in vitro study as reported previously. The tested hybrids were incubated at room temperature with sodium linoleate (100 µM) and 200 µL of enzyme solution (1/9 X 10^-4 w/v in saline). […] Different concentrations were used for the determination of IC50. A blank determination was used as a negative control.
# Due to the limited work on sufficiently purified human ALOX-5 isoenzyme, most of the published research was performed on the soybean homolog. […] This study used the soybean isoenzyme LOX-1, which exerts maximal activity at pH 9.0 [72].
# ovine COX-2 = molecular target: T2, ovine COX-2 (Ovis aries, UniProt P79208); assay: Cyclooxygenase-2 inhibition study; format: biochemical; conditions: for COX-2 inhibition (%): % inhibition at 100 µM; for IC50: read-out: COX-2 inhibition (IC50)
# T2 construct: purchased Cayman (USA)
# T2 sequence (P79208 17-603): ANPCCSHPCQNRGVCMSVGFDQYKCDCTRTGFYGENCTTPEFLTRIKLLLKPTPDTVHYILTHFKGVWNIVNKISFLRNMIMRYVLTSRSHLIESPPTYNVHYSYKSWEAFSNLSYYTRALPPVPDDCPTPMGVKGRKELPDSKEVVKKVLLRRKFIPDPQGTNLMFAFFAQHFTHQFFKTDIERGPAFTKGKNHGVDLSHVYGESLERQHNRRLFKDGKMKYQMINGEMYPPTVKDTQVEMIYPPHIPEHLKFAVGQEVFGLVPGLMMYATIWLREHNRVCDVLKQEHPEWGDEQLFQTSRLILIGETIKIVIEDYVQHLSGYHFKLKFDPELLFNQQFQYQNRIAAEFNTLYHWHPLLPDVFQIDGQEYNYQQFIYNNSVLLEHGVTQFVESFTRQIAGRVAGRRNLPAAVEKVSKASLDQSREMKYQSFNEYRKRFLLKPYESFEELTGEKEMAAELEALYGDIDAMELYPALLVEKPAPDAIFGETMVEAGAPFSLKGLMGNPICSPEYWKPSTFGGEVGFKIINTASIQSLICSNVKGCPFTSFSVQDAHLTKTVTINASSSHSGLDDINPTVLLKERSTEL
# Protocol: The in vitro study of cyclooxygenase (COX) activity was determined by using arachidonic acid (AA) as the substrate and N,N,N’,N’-tetramethylphenylenediamine (TMPD) as the co-substrate. […] The absorption due to the spontaneous oxidation of TMPD was subtracted from the initial rate of oxidation observed in the presence of AA. […] A blank determination was used first to serve as a negative control. Indomethacin was used as a reference COX-2 inhibitor (positive control).
# The role of COX-2 in neurodegenerative diseases has been reported, and COX-2 inhibition is considered of high importance as a therapeutic tool. The designed derivatives were tested for their COX-2 inhibition activity on the ovine COX-2 enzyme. […] Indomethacin was used as a reference compound.
# [3] = read-out: LOX inhibition (IC50)
Compound,LOX inhibition (%) [2] [%],"IC50 [2, 3] [µM]","AAPH inhibition (%, at 100 µM) [1] [%]",also measured
COC(=O)CC[C@H](NC(=O)/C=C/C=C/c1ccccc1)C(=O)OC [Compound 23c],,75,25,COX-2 inhibition (%) (ovine COX-2): 47%
"CC(=O)Oc1ccc(/C=C/C(=O)O)cc1 [Compound 30, (E)-3-(4-acetoxyphenyl) acrylic acid]",,,33,inhibition at 100 µM [2]: 23%
O=C(O)/C=C/c1ccc(C(F)(F)F)cc1 [Compound 13],,,37,inhibition at 100 µM [2]: 42%; inhibition at 100 µM (ovine COX-2): 32%
CCOC(=O)CNC(=O)/C=C/c1ccc2c(c1)OCO2 [Compound 20a],6,,70,IC50 (ovine COX-2): 75 µM
COC(=O)CCCNC(=O)/C=C/c1ccc(O)c(OC)c1 [Compound 24b],,100,34,
COC(=O)CC[C@H](NC(=O)/C=C/c1cccc(Oc2ccccc2)c1)C(=O)OC [Compound 12c],,60,65,
CCOC(=O)CNC(=O)/C=C/c1ccc(O)c(OC)c1 [Compound 24a],,100,82,
COC(=O)CC[C@H](NC(=O)/C=C/c1cc(OC)ccc1OC)C(=O)OC [Compound 19c],7,,64,
COC(=O)CCCNC(=O)/C=C/c1ccc2c(c1)OCO2 [Compound 20b],,67.5,9,
"O=C(O)/C=C/c1ccc(O)cc1 [Compound 25, p-coumaric acid]",,,76,IC50 [2]: 10 µM; IC50 (ovine COX-2): 62 µM
COC(=O)CC[C@H](NC(=O)/C=C/c1ccc(F)cc1)C(=O)OC [Compound 27c],8,,10,IC50 (ovine COX-2): 72.5 µM
O=C(O)/C=C/c1ccc2c(c1)OCO2 [Compound 20],,,31,inhibition at 100 µM [2]: 27%
COc1ccc(OC)c(/C=C/C(=O)O)c1 [Compound 19],,60,88,inhibition at 100 µM (ovine COX-2): 28%
COC(=O)CCCNC(=O)/C=C/c1ccc(Br)cc1 [Compound 14b],12,,11,
COC(=O)CC[C@H](NC(=O)/C=C/c1cccc(Br)c1)C(=O)OC [Compound 15c],,75,,
"CC1(C)Oc2ccc(/C=C/C(=O)O)cc2O1 [Compound 29, (E)-3-(2,2-dimethylbenzo[d][1, 3]dioxol-5-yl)acrylic acid]",,,56,inhibition at 100 µM [2]: 46%
COC(=O)CC[C@H](NC(=O)/C=C/c1cccs1)C(=O)OC [Compound 21c],,100,41,
COC(=O)CC[C@H](NC(=O)/C=C/c1cccc2ccccc12)C(=O)OC [Compound 17c],,68,57,IC50 (ovine COX-2): 62 µM

# Now from value to compound, other results behind:
LOX inhibition (%) [2] [%],"IC50 [2, 3] [µM]",Compound,"AAPH inhibition (%, at 100 µM) [1] [%]",also measured
28,,CCOC(=O)CNC(=O)/C=C/c1cc(OC)ccc1OC [Compound 19a],89,
19,,COC(=O)CC[C@H](NC(=O)/C=C/c1ccc2c(c1)OCO2)C(=O)OC [Compound 20c],20,
,62.5,CCOC(=O)CNC(=O)/C=C/c1ccc(OC)c(OC)c1 [Compound 18a],99,COX-2 inhibition (%) (ovine COX-2): 14%
20,,CCOC(=O)CNC(=O)/C=C/c1cccs1 [Compound 21a],15,IC50 (ovine COX-2): 55 µM
23,,CCOC(=O)CNC(=O)/C=C/c1cccc2ccccc12 [Compound 17a],,
,57.5,COC(=O)CC[C@H](NC(=O)/C=C/c1ccc(OC)c(OC)c1)C(=O)OC [Compound 18c],74,
,63,COC(=O)CC[C@H](NC(=O)/C=C/c1ccc(O)cc1)C(=O)OC [Compound 25c],78,
,75,COC(=O)CC[C@H](NC(=O)/C=C/c1ccc(O)c(OC)c1)C(=O)OC [Compound 24c],12,COX-2 inhibition (%) (ovine COX-2): 9%
36,,CCOC(=O)CNC(=O)/C=C/c1cccc(Oc2ccccc2)c1 [Compound 12a],48,IC50 (ovine COX-2): 55 µM
,70,CCOC(=O)CNC(=O)/C=C/c1ccc(O)c(O)c1 [Compound 28a],47,inhibition at 100 µM (ovine COX-2): 17%
0,,CCOC(=O)CNC(=O)/C=C/c1ccccc1 [Compound 22a],5,IC50 (ovine COX-2): 5 µM
40,,COC(=O)CCCNC(=O)/C=C/c1ccc(OC)c(OC)c1 [Compound 18b],75,
10,,COC(=O)CC[C@H](NC(=O)/C=C/c1ccc(C#N)cc1)C(=O)OC [Compound 26c],,
10,,COC(=O)CCCNC(=O)/C=C/c1ccc(O)cc1 [Compound 25b],66,
10,,COC(=O)CC[C@H](NC(=O)/C=C/c1ccccc1)C(=O)OC [Compound 22c],39,
,75,COC(=O)CC[C@H](NC(=O)/C=C/c1ccc(Br)cc1)C(=O)OC [Compound 14c],38,
,57.5,CCOC(=O)CNC(=O)/C=C/c1cccc(Br)c1 [Compound 15a],26,
0,,COC(=O)CCCNC(=O)/C=C/c1cccs1 [Compound 21b],73,COX-2 inhibition (%) (ovine COX-2): 38%
31,,CCOC(=O)CNC(=O)/C=C/c1ccc(C(F)(F)F)cc1 [Compound 13a],8,
30,,COC(=O)CCCNC(=O)/C=C/c1ccc(OCc2ccc(Br)cc2)cc1 [Compound 11b],19,
,80,COC(=O)CC[C@H](NC(=O)/C=C/c1ccc(C(F)(F)F)cc1)C(=O)OC [Compound 13c],37,
